Experimental data as given in patent US7364741B1, “Peptides of human Papilloma virus for use in human T cell response inducing compositions” (priority 1992, dated 2008).

How the values were obtained:
HLA-A24 = assay: Immunochemical peptide-MHC binding assay, purified HLA-A24, radiolabeled probe AYIDNYNKF; parameters: species or system human; settings: IC50 of standard divided by IC50 of tested peptide, cysteines synthesized as alanine
Description: (§1) The method utilizes purified class I molecules and radiolabeled synthetic probes based on consensus peptides. Competitor peptides tested for their binding to the class I molecules compete for this binding with the radiolabeled consensus peptides. The HLA-A1, A2.1, A3.2, A11.2, and A24 molecules were isolated from the following cell lines, respectively: the EBV (Eppstein Barr Virus) transformed cell line Steinlin, the EBV transformed cell line JY, the EBV transformed cell line GM3107, the cell line BVR and the EBV transformed cell line KT3. After large scale culture, cells were lysed in NP40 (Fluka Biochemika, Buchs, Switzerland) and the lysate was passed over two pre-columns of inactivated sepharose CL 4B and Prot A Sepharose. Class I molecules were then purified from the cell lysate by affinity chromatography using Prot A Sepharose beads conjugated with B2.23.2 (anti-HLA-B and HLA-C) and anti-human HLA. The lysate was first depleted of B and C molecules by repeated passage over the B2.23.2 column.
(§2) After two days at 23° C. the percent of MHC-bound radioactivity was measured by size exclusion chromatography on a TSK2000 gel filtration as described by Sette et al. (1992).
(§3) Probe peptides were iodinated by using the Chloramine T method described by Buus et al. (1987). The sequences of the probe peptides used for the aforementioned HLA molecules were […] (SEQ ID NO:76) for A1, […] (SEQ ID NO:77) for A2.1, […] (SEQ ID NO:78) for A3.2, […] (SEQ ID NO:79) for A11.2, and […] (SEQ ID NO:80) for A24.
(§4) Each competitor peptide was tested in two to four completely independent experiments. Since cysteine containing peptides are susceptible to (air) oxidation during synthesis and handling, these peptides were synthesized with an alanine instead of a cysteine.

HLA-A3.2 = target: T1, HLA-A3.2 (Homo sapiens, UniProt P04439); assay type: binding; settings: HLA-A3.2; IC50 of standard divided by IC50 of tested peptide; cysteines synthesized as alanine
T1 construct: endogenous in cells; host or cells: EBV transformed cell line GM3107 (protein purified from NP40 lysate)
T1 sequence (P04439 25-365): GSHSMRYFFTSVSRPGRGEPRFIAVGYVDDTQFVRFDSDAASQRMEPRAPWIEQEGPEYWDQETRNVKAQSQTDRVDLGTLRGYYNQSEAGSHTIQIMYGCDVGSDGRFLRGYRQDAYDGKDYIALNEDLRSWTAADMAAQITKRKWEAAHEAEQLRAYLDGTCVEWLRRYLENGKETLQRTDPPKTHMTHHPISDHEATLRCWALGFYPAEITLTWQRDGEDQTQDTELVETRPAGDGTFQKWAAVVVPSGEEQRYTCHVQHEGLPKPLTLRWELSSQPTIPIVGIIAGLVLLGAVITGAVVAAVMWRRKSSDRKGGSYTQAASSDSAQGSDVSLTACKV
T1 sequence (P61769 21-119, further chain): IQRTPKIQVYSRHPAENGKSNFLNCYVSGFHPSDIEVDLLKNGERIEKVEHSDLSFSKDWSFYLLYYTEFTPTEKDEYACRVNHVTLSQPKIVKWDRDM
Description: as §1, §2, §3, §4

HLA-A11.2 = assay: Immunochemical peptide-MHC binding assay, purified HLA-A11.2, radiolabeled probe […]; parameters: species or system human; settings: IC50 of standard divided by IC50 of tested peptide, cysteines synthesized as alanine
Description: as §1, §2, §3, §4

HLA-A1 = target: T2, HLA-A1 (Homo sapiens, UniProt P04439, A114D/A174V/A182V/D101N/E190D/Q94H/R68K/S129P/V100A/V91M/W191G); assay: Immunochemical peptide-MHC binding assay, purified HLA-A1, radiolabeled probe YLEPAIAKY; settings: IC50 of standard divided by IC50 of tested peptide, cysteines synthesized as alanine
T2 construct: endogenous in cells; host or cells: EBV transformed cell line Steinlin (protein purified from NP40 lysate)
Description: as §1, §2, §3, §4

HLA-A2.1 = target: T3, HLA-A2.1 (Homo sapiens, UniProt P04439, D140Y/D185E/D98H/E176V/E277Q/G131W/G231S/I119V/I121R/I166T/I218V/L300P/L318F/N151K/N90K/P208A/P217A/Q86G/Q94H/R138H/R169H/T345S); assay type: cell-based; settings: HPV16 peptides, 200 μg/ml peptide, 16 hours, 174CEM.T2 cells; for FI (Fluorescence Index): background set on 0, binding positive when ≧0.5
T3 construct: endogenous in cells; host or cells: 174CEM.T2
Procedure: Of all peptides a dilution of 1 mg/ml in 0.9% NaCl was made.
174CEM.T2 cells were cultured in Iscovel's modified Dulbecco's medium (Biochrom KG Seromed Berlin, Germany: F0465) supplemented with 100 IU/ml penicillin (Biocades Pharma, Leiderdorp, The Netherlands), 100 μg/ml kanamycin (Sigma St. Louis, USA:K-0254), 2 mM glutamine (ICN Biomedicals Inc. Costa Mesa, Calif., USA:15-801-55) and 10% fetal calf serum (FCS, Hyclone Laboratories Inc. Logan, Utah, USA:A-1115-L). Cells were cultured at a density of 2.5×10^5/ml during 3 days at 37° C., 5% CO2 in humified air.
174CEM.T2 cells were washed twice in culture medium without FCS and put in serum-free culture medium to a density of 2×10^6 cells/ml. Of this suspension 40 μl was put into a V bottomed 96 well plate (Greiner GmbH, Frickenhausen, Germany: 651101) together with 10 μl of the individual peptide dilutions (of 1 mg/ml). The end concentration is 200 μg/ml peptide with 8×10^4 174CEM.T2 cells. This solution was gently agitated for 3 minutes after which an incubation time of 16 hours at 37° C., 5% CO2 in humified air took place. Then cells were washed once with 100 μl 0.9% NaCl, 0.5% bovine serum albumin (Sigma St. Louis, USA: A-7409), 0.02% NaN3 (Merck Darmstadt, Germany:822335). After a centrifuge round of 1200 rpm the pellet was resuspended in 50 μl of saturating amounts of HLA-A2.1 specific mouse monoclonal antibody BB7.2 for 30 minutes at 4° C. Then cells were washed twice and incubated for 30 minutes with F(ab)2 fragments of goat anti-mouse IgG that had been conjugated with […] (Tago Inc Burlingame, Calif., USA: 4350) in a dilution of 1:40 and a total volume of 25 μl.
After the last incubation, cells were washed twice and fluorescence was measured at 488 nanometer on a FACScan flow-cytometer (Becton Dickinson, Franklin Lakes, N.J., USA).
The 174CEM.T2 cell line expresses “empty” and unstable HLA-A2.1 molecules that can be stabilized when a peptide is binding to the peptide presenting groove of these molecules. […] This leads to an increase in cell surface expression of the HLA-A2.1 molecule.
With background fluorescence level (without adding peptides) set on a Fluorescence Index level of 0, binding of a peptide was regarded positive when the level of fluorescence was ≧0.5.

Sequence	binding ratio to standard (HLA-A24)	binding ratio to standard (HLA-A3.2)	binding ratio to standard (HLA-A11.2)	also measured
EYRHYCYSL [residues 82-90 of HPV16 protein E6]	0.0460			
VYCKQQLLR [residues 38-46 of HPV16 protein E6]	0.0011	0.0012	0.0022	
CYSLYGTTL [residues 87-95 of HPV16 protein E6]	0.1200			
HVDIRTLED [residues 73-81 of HPV16 protein E7]				binding ratio to standard (HLA-A1): 0.014
LLRREVYDF [residues 44-52 of HPV16 protein E6]	0.0023			
TTDLYCYEQ [residues 19-27 of HPV16 protein E7]				binding ratio to standard (HLA-A1): 0.023
PYAVCDKCL [residues 66-74 of HPV16 protein E6]	0.0055			
WTGRCMSCC [residues 139-147 of HPV16 protein E6]				binding ratio to standard (HLA-A1): 0.020
MHQKRTAMF [residues 1-9 of HPV16 protein E6]	0.0049			
HYNIVTFCC [residues 51-59 of HPV16 protein E7]		0.0260	0.0010	
EIDGPAGQA [residues 37-45 of HPV16 protein E7]				binding ratio to standard (HLA-A1): 0.025
IVYRDGNPY [residues 59-67 of HPV16 protein E6]		3.0000	0.4700	
HYCYSLYGT [residues 85-93 of HPV16 protein E6]	0.0037			
VYDFAFRDL [residues 49-57 of HPV16 protein E6]	0.0610			
KCLKFYSKI [residues 72-80 of HPV16 protein E6]	0.1100			
ISEYRHYCY [residues 80-88 of HPV16 protein E6]		0.0064	0.4300	
QQLLRREVY [residues 42-50 of HPV16 protein E6]		0.0058	0.0084	
RFHNIRGRW [residues 131-139 of HPV16 protein E6]	0.1000			
MSCCRSSRT				binding ratio to standard (HLA-A1): 0.019
CVYCKQQLL [HPV16 peptide 8, residues 37-45 of HPV16 protein E6]		0.0320	0.0450	MF (mean HLA-A2.1 fluorescence) (HLA-A2.1): 195.0; FI (Fluorescence Index) (HLA-A2.1): 2.0
IILECVYCK [residues 33-41 of HPV16 protein E6]		1.5000	6.7000	
YNIVTFCCK [residues 52-60 of HPV16 protein E7]		0.0067	0.0060	
RAHYNIVTF [residues 49-57 of HPV16 protein E7]	0.0670			
KISEYRHYC [HPV16 peptide 9, residues 79-87 of HPV16 protein E6]		0.0044	0.0076	MF (mean HLA-A2.1 fluorescence) (HLA-A2.1): 211.7; FI (Fluorescence Index) (HLA-A2.1): 2.2
YRDGNPYAV [residues 61-69 of HPV16 protein E6]				binding ratio to standard (HLA-A1): 0.008
VCDKCLKFY [residues 69-77 of HPV16 protein E6]		0.0025	0.0030	
